Entries after “also recorded” stand apart in the source; their conditions may differ. Read-outs that look alike come from different tables or passages of the source.
Key:
SW-480 cells = test: Stress-focused drug screen of 164 compounds with or without LB-100; format: cell-based; conditions: 2.5 µM LB-100 (sub-lethal); cell viability after three days; 15 concentrations (FIG. 2B)
Description: (§1) To identify stress-targeted drugs that can be combined with LB-100 to kill cancer cells, a library of 164 compounds was built targeting the different stress responses associated with a malignant phenotype (i.e., proteotoxic stress, oxidative stress, DNA damage stress, mitotic stress, metabolic stress, and apoptosis evasion). These compounds were investigated in 15 different concentrations using a literature-based concentration range in order to obtain dose-response curves for each of these drugs.

[1] = tested on: RBE cholangiocarcinoma cells; test: as above; format: cell-based; conditions: stress-focused screen with LB-100 vs control (FIG. 5A)
Description: as §1

[2] = tested on: colorectal cancer cell lines; test: cells
Method: Drug-response assays were performed in triplicate, using black-walled 384-well plates. Cells were plated with a 20% density (approximately) and incubated for approximately 24 hours to allow attachment to the plate. […] 10 µM phenylarsine oxide was used as positive control (0% cell viability) and DMSO was used as negative control (100% cell viability). 3-5 days later, culture medium was removed and resazurin was added to the plates. After 1-4 hours incubation (depending on the cell line), fluorescence (560Ex/590Em) was recorded using the EnVision (Perkin Elmer).
The effect of increasing doses of LB-100 to the Table 1 cell lines, both in short-term cell viability assays (FIG. 1A) and long-term cell proliferation assays (FIG. 1B), was analyzed. For the short-term study, cells were cultured with increasing concentrations of LB-100 for 5 days. Then the cell viability was measured using resazurin.
Adavosertib was used as the WEE1 kinase inhibitor to investigate the effect of the combination with LB-100 in the panel of CRC cells. […] Toxicity of the combination in long-term viability assays was assessed. The cells were cultured for at least ten days and the drugs were refreshed every other day. The toxicity of the single drugs in this experimental setup was assessed. […] Cells were then treated at the indicated conditions and confluence over time was measured by IncuCyte®, FIG. 3D).

[3] = tested on: cholangiocarcinoma (CCA) cell lines; test: Short-term cell viability dose-response assay (resazurin); format: cell-based; conditions: 120 h, read-out: IC50s from dose-response curves
Description: (§2) The efficacy of the LB-100/adavosertib combination in the CRC cell lines encouraged further evaluation in other tumor types lacking effective treatment options. Pancreatic ductal adenocarcinomas (PDACs) are refractory to conventional therapies and the 5-year survival rates remain one of the lowest among all cancers. Similarly, despite a much lower overall incidence, cholangiocarcinomas (CCAs) share with PDACs the frequent lack of response to conventional therapies and the dismal prognosis. A panel of four PDAC cell lines and a similar one with CCA cells were assembled to assess the efficacy of LB-100 and adavosertib in these cancer types. […] To investigate the effects of the combination in the PDAC and CCA cancer cell lines systematically, the same experimental workflow used for the CRC panel was employed. First, the long-term toxicity of LB-100 and adavosertib was addressed in the PDAC and CAA cell lines (FIG. 5D and FIG. 8C). […] As observed for DiFi and RKO, the doses of adavosertib used in the synergy assays are already toxic to AspC-1, EGI, and HuCC-T1 cells (FIG. 5C, FIG. 8A, and FIG. 8B).

[4] = tested on: pancreatic ductal adenocarcinoma (PDAC) cell lines; test: as above; format: cell-based; conditions: 120 h, read-out: IC50s from dose-response curves
Description: as §2

[5] = tested on: colorectal cancer cell lines; format: cell-based; conditions: for toxicity when combined with LB-100, long-term cell proliferation: SW-480 cells, multiple concentrations, 10-14 days (FIG. 2F)
Method: Finally, plates were scanned and stored.
(§3) Then the cell viability was measured using resazurin.

HT-29 cells = test: Stress-focused drug screen of 164 compounds with or without LB-100; format: cell-based; conditions: 2.5 µM LB-100 (sub-lethal); cell viability after three days (FIG. 2C)
Description: These compounds were investigated in 15 different concentrations using a literature-based concentration range in order to obtain dose-response curves for each of these drugs.

[6] = tested on: mitogenic signaling pathways and stress response pathways; test: Time-course Western blots; format: cell-based; conditions: DiFi, HT-29 and SW-480 cells; vinculin control (FIG. 1C-1E)
Method: After the indicated culture period and drug treatment, cells were washed with cold PBS, then lysed with RIPA buffer (25 mM Tris-HCl, pH 7.6, 150 mM NaCl, 1% NP-40, 1% sodium deoxycholate, 0.1% SDS) containing Complete Protease Inhibitor cocktail and phosphatase inhibitor cocktails II and III. Samples were then centrifuged for 10 min at 15,000 x g at 4° C. and supernatant was collected. Protein concentration of the samples was normalized after performing a Bicinchoninic Acid (BCA) assay. Protein samples (denatured with DTT followed by 5 min heating at 95° C.) were then loaded in a 4-12% polyacrylamide gel. Gels were run (SDS-PAGE) for approximately 45 min at 175 volts. Proteins were transferred from the gel to a polyvinylidene fluoride (PVDF) membrane at 330 mA for 90 min. After the transfer, membranes were incubated in blocking solution (5% bovine serum albumin (BSA) in PBS with 0.1% Tween-20 (PBS-T)). Subsequently, membranes were probed with primary antibody in blocking solution (1:1000) overnight at 4° C. Membranes were then washed 3 times for 10 min with PBS-T, followed by 1 h incubation at room temperature with the secondary antibody (HRP conjugated, 1:10,000) in blocking solution. […]
as §3

Compound	toxicity in the presence of LB-100 vs control (normalized AUC) (SW-480 cells)	increased drug efficacy in the presence of LB-100 (normalized AUC) [1]	toxicity in the presence of LB-100 vs control (normalized AUC) (HT-29 cells)	further results
CCN(CC)CCOc1ccc(Nc2ncc3cc(-c4c(Cl)cccc4Cl)c(=O)n(C)c3n2)cc1 [PD0166285]	among the bottom 5% normalized AUCs			
Cc1cnc(NC(=O)Nc2cc(Br)c(C)cc2OC[C@@H]2CNCCO2)cn1 [rabusertib]	among the bottom 5% normalized AUCs; also recorded: increased toxicity	among the top 5% in increased drug efficacy		
CC1(C)CCC(c2ccc(Cl)cc2)=C(CN2CCN(c3ccc(C(=O)NS(=O)(=O)c4ccc(N[C@H](CCN5CCOCC5)CSc5ccccc5)c(S(=O)(=O)C(F)(F)F)c4)cc3)CC2)C1 [navitoclax]	increased in the presence of LB-100			
C=CCn1c(=O)c2cnc(Nc3ccc(N4CCN(C)CC4)cc3)nc2n1-c1cccc(C(C)(C)O)n1 [adavosertib]	among the bottom 5% normalized AUCs	among the top 5% in increased drug efficacy	LB-100 increased the toxicity	IC50 ([2]; 120 h, read-out: IC50s from dose-response curves): 0.18 to 1 µM; IC50 ([3]; range across CCA cell lines, 5 days, resazurin (FIG. 5C)): 0.1 to 0.37 µM; IC50 ([4]; range across four PDAC cell lines, 5 days, resazurin (FIG. 8A, 8B)): 0.3 to 1.7 µM; tolerance to single drug, long-term viability ([5]; DLD1, HCT-116 and SW-480 cells (FIG. 3C)): largely tolerant to up to 500 nM; toxicity when combined with LB-100, long-term cell proliferation [5]: increased toxicity
N#Cc1cnc(Nc2cc(NC[C@H]3CNCCO3)c(C(F)(F)F)cn2)cn1 [CCT-245737]			increased toxicity	
CNCc1ccc(-c2cc(-c3nc(-c4ccc(S(=O)(=O)C(C)C)cc4)cnc3N)on2)cc1 [berzosertib]		among the top 5% in increased drug efficacy		
CN(C)CC#Cc1ccc(OCCCc2sc(N3CCc4cccc(C(=O)Nc5nc6ccccc6s5)c4C3)nc2C(=O)O)c(F)c1 [Compound A-1155463]	increased in the presence of LB-100			toxicity when combined with LB-100, long-term cell proliferation [5]: increased toxicity
COc1cccc(OCCCN)c1-c1cc(Nc2cnc(C#N)cn2)n[nH]1 [prexasertib]	among the bottom 5% normalized AUCs; also recorded: increased toxicity	among the top 5% in increased drug efficacy		toxicity when combined with LB-100, long-term cell proliferation [5]: increased toxicity
CN1CCN(C(=O)[C@@H]2[C@H](C(=O)O)[C@H]3CC[C@@H]2O3)CC1 (racemic) [LB-100]				cytotoxicity, short-term cell viability [2]: moderate toxicity in the lower micro molar range; IC50 [3]: ≥ 4.7 µM; IC50 [4]: ≥ 3.2 µM; cytotoxicity, long-term cell proliferation [5]: moderate toxicity in the lower micro molar range; activation of mitogenic signaling and stress response pathways [6]: activates mitogenic signaling pathways and engages stress response pathways
Cn1cc(-c2cnn3c(N)c(Br)c([C@@H]4CCCNC4)nc23)cn1 [SCH-900776]		among the top 5% in increased drug efficacy	increased toxicity	
N[C@@H]1CCCN(c2c(Br)cnc3[nH]cc(NC(=O)C4CC4)c23)C1 [GDC-0575]	among the bottom 5% normalized AUCs	among the top 5% in increased drug efficacy	LB-100 increased the toxicity	
